Source: patent US6218378A, “Anti-tumor agents comprising pyridyl-substituted metal-diphosphine complex” (priority 1994, dated 2001)
Several values for one entry are separate records, joined by “and”; a condition that tells them apart may be missing. Equal entries are not always repeated. Where two headings read alike, the source gives them in different places.

How the values were obtained:
CH1 = test: cytotoxicity assay, sulforhodamine B; assay type: cell-based, human; conditions: 96 hrs, mean ± SD or individual values when n<3
Protocol: (§1) In Table 2, reference is made to cell lines 41M, 41M-cisR, SKOV-3, CH1 and CH1-cisR.
(§2) J. Cancer 69 1-7. The characteristics of the cell line pairs CH1/CH1 cisR, 41M/41McisR and 41M/SKOV3 are described in Table 3.
(§3) The cytotoxicity assay used sulforhodamine B which stains the basic amino acids. Cells (5000 or 2500 for SKOV-3) were seeded into 96 well microtitre plates (Linbro, Flow Laboratories Inc., USA) in 0.1 ml of medium. After an overnight incubation, the metal phosphine compounds were dissolved in 0.9% NaCl or ethanol and diluted with medium, were added at concentrations ranging from 0.005 to 50 μM to quadruplicate wells. After 96 hrs incubation, the medium was removed and cells were fixed in 0.2 ml of cold 10% (w/v) trichloroacetic acid (May & Baker Ltd., Dagenham, England) for 30 mins at 4° C. The plates were washed five times with tap water. Then 0.1 ml of 0.4% (w/v) sulforhodamine B (Sigma Chemical Co., St. Louis, USA) dissolved in 1% acetic acid (Ajax Chemicals, Australia) was added to the wells and left to stand at room temperature for 15 mins. The plates were then washed five times with 1% acetic acid and left to dry overnight. The next morning, 0.1 ml of 10 mM Tris buffer (Sigma Chemical Co., St. Louis, USA) was then added to each plate to solubilise the dye. Absorbance was read at a wavelength of 570 nm using a 96 well plate reader Dynatech MR 5000 plate reader. Absorbance of treatment cells was expressed as a percentage of positive (drug-free) controls. The results were plotted as percentage growth versus drug concentration.

CH1-cisR = test: cytotoxicity assay, sulforhodamine B; assay type: cell-based, human; conditions: 96 hrs, mean ± SD or individual values when n<3
Protocol: as §1, §2, §3

SKOV-3 = test: cytotoxicity assay, sulforhodamine B; assay type: cell-based, human; conditions: 96 hrs, mean ± SD or individual values when n<3
Protocol: as §1, §2, §3

41M-cisR = test: cytotoxicity assay, sulforhodamine B; assay type: cell-based, human; conditions: 96 hrs, mean ± SD or individual values when n<3
Protocol: as §1, §2, §3

41M = test: cytotoxicity assay, sulforhodamine B; assay type: cell-based, human; conditions: 96 hrs, mean ± SD or individual values when n<3
Protocol: as §1, §2, §3

[1] = test system: 41M, 41M-cisR, SKOV-3, CH1, CH1-cisR; test: growth inhibition of cisplatin-sensitive and -resistant ovarian cancer cell lines (Table 2, FIG. 5); assay type: cell-based, human
Text: (§4) The sensitive CH1 cell line was established from a patient with drug-sensitive disease and its resistant variant (CH1-cisR) was generated by prolonged in vitro exposure to cisplatin during which it acquired more efficient DNA repair as described in Kelland et al., 1992, Cancer Research 52 3857-3864. The sensitive 41M cell line was also established from a patient with a sensitive tumor and its resistant variant (41M-cisR) was generated in the same way but acquired decreased uptake across the cell membrane (Kelland et al., 1992, supra). The intrinsically-resistant SKOV-3 ovarian carcinoma cell line has high glutathione levels as described in Mistry et al., 1991, Brit. J. Cancer 64 215-220 and reduced levels of bi-functional cisplatin-DNA lesions as described in McKeage et al., 1994, Brit. J. Cancer 69 1-7. The characteristics of the cell line pairs CH1/CH1 cisR, 41M/41McisR and 41M/SKOV3 are described in Table 3.
as §3, with “concentration. The drug concentration resulting in a 50% growth inhibition was termed the IC50. The passage numbers used for the cytotoxicity assay from each cell line were, CH1 passages 50-58, CH1 cis-R passages 77-83, 41M passages 50-63, 41M cisR 81-92 and SKOV-3 passages 106-128.” for “concentration.”

HeLa-S1a = test: cell survival after drug treatment ([methyl-3H]-thymidine); assay type: cell-based, human; conditions: for IC50: HeLa-S1a, mean ± SD or individual values when n<3, 5-7 days
Text: (§5) In FIGS. 1-4 and Table 1, reference is made to the cell lines HeLa, HeLa-S1a, JAM, CI-80-13S and MM96.
(§6) The origins of the human melanoma cell line MM96 has been described in Whitehead et al., 1973, Pigment Cell 1 383-389. The cell line JAM is described in Ward et al., 1987, Cancer Res. 47 2662-2667. The origin of the ovarian tumour line CI-80-13S has been described in Bertoncello et al., 1985, Aust. J. Exp. Biol. Med. Sci. 63 241-243. The origin of the cervical carcinoma cell line HeLa has been described in Maynard et al., 1986, Cancer Res. 46 5009-5093. The subclone HeLa-S1a was derived by stably transfecting HeLa with PAI-2 cDNA described in Schleuning et al., 1987, Mol. Cell. Biol. 7 4564-4567 in the sense orientation under the control of the cyto-megalovirus (CMV) promoter. The stably infected subclone was isolated following G418 selection and expression of the PAI-2 transgene characterised by immunoblot analysis and quantitated by ELISA. All of these cell lines have been used before for carrying out cell survival assays referred to in FIGS. 1-4. Cells were cultured at 37° in 5% CO2 /air in Roswell Park Memorial Institute medium 1640 containing 5% foetal calf serum, 100 μg/ml streptomycin, 100 IU/ml penicillin, 1 mM pyruvate, 50 μM nicotinamide and 3 mM HEPES.
(§7) Cells were seeded in microtitre plates (lowest number for fastest growing cells: 1000 HeLa, 2000 MM96, […] CI-80-13S cells per 6 mm well in 100 μl), normally but not necessarily allowed to attach overnight, then 5 dilutions of the drug were added to duplicate wells. After an overnight incubation to equilibrate the pH, the lids were quickly taped around the edge to prevent evaporation. The plates were incubated for 5-7 days, until the controls were nearly confluent. Cell growth/morphology was scored at each dose visually (inverted microscope). The medium was then replaced by 50 μl fresh medium containing 2 u/Ci/ml [methyl-3H]-thymidine (5 Ci/mmol; Radiochemical Centre, Amersham, Bucks., U.K.) and incubated for 2-4 hr. The cells were washed with PBS (0.1 M NaCl, 50 mM phosphate, pH 7.2), detached with 100 μl of PBS containing 0.2 mg/ml trypsin and 10 mM EDTA, and washed onto a glass fibre GF/a filter mat with water using a cell harvester. Later, wells were checked under the microscope to ensure complete detachment and washout. Radioactivity was determined in an LKB Beta Plate counter and the results plotted as log % control cpm versus dose. The ID50 (dose required to give 50% survival) was interpolated from this survival curve.

MM96 = test: as above; assay type: cell-based, human; conditions: for IC50: MM96L, mean ± SD or individual values when n<3, 5-7 days
Text: as §5, §6, §7

CI-80-13S = test: as above; assay type: cell-based, human; conditions: for IC50: CI-80-13S, mean ± SD or individual values when n<3, 5-7 days
Text: as §5, §6, §7

HeLa = test: as above; assay type: cell-based, human; conditions: for IC50: HeLa, mean ± SD or individual values when n<3, 5-7 days
Text: as §5, §6, §7

[2] = test system: four human tumour cell lines (MM96, HeLa, CI-80-13S, HeLa-S1a); test: cytotoxicity against four human tumour cell lines in vitro (FIGS. 3 and 4); assay type: cell-based; conditions: for cytotoxicity (FIGS. 3 and 4): all four cell lines; for selectivity against the cisplatin-resistant lines: compared with formula (I) or (V), R=4-pyridyl and 3-pyridyl
Text: as §6, §7
We have tested the following compounds of formula (III) against the four human tumour cell lines described above, i.e.: […]

cisplatin cytotoxicity [3] = conditions: in vitro; cited from earlier work
cisplatin cytotoxicity [4] = conditions: in vivo; cited from earlier work
human tumour cell lines = test: selectivity of cytotoxicity over all cell lines evaluated (Tables 1 and 2); assay type: cell-based
Text: as §6, §7, §4
The cytotoxicity assay used sulforhodamine B which stains the basic amino acids. Cells (5000 or 2500 for SKOV-3) were seeded into 96 well microtitre plates (Linbro, Flow Laboratories Inc., USA) in 0.1 ml of medium. After an overnight incubation, the metal phosphine compounds were dissolved in 0.9% NaCl or ethanol and diluted with medium, were added at concentrations ranging from 0.005 to 50 μM to quadruplicate wells. After 96 hrs incubation, the medium was removed and cells were fixed in 0.2 ml of cold 10% (w/v) trichloroacetic acid (May & Baker Ltd., Dagenham, England) for 30 mins at 4° C. The plates were washed five times with tap water. […]

[5] = test system: CI-80-13S vs JAM; HeLa-S1a vs HeLa; test: relative cytotoxic potency in cisplatin-resistant and non-resistant cells (Table 1); assay type: cell-based, human; conditions: CI80-13-S vs JAM; HeLaS1a vs HeLa
Text: as §6, with “All of these cell lines have been used before for carrying out cell survival assays referred to in FIGS. 1-4. Cells were cultured at 37° in 5% CO2 /air in Roswell Park Memorial Institute medium 1640 containing 5% foetal calf serum, 100 μg/ml streptomycin, 100 IU/ml penicillin, 1 mM pyruvate, 50 μM nicotinamide and 3 mM HEPES.” left out
Cells were seeded in microtitre plates (lowest number for fastest growing cells: 1000 HeLa, 2000 MM96, […] CI-80-13S cells per 6 mm well in 100 μl), normally but not necessarily allowed to attach overnight, then 5 dilutions of the drug were added to duplicate wells. […] Cell growth/morphology was scored at each dose visually (inverted microscope). […] Radioactivity was determined in an LKB Beta Plate counter and the results plotted as log % control cpm versus dose. […]

JAM = test: cell survival after drug treatment ([methyl-3H]-thymidine); assay type: cell-based, human; conditions: mean ± SD or individual values when n<3, 5-7 days
Text: as §5, §6, §7

Structure (SMILES): [Au+].[Au+].[Cl-].[Cl-].c1cncc(P(CCP(c2cccnc2)c2cccnc2)c2cccnc2)c1.c1cncc(P(CCP(c2cccnc2)c2cccnc2)c2cccnc2)c1 [[Au2 (d3pype)2 Cl2]]
- IC50 (CH1): 900 ± 400 nM
- IC50 (CH1-cisR): 500 ± 100 nM
- IC50 (SKOV-3): 71000 ± 12000 nM
- IC50 (41M-cisR): 47000 nM
- IC50 (41M): 70000 ± 12000 nM
- sensitivity of cisplatin resistant cells versus non-resistant cells ([1]; 41M/41M-cisR and CH1/CH1-cisR pairs): consistently more sensitive
- cytotoxicity (FIGS. 1 and 2) (HeLa-S1a; HeLa-S1a in vitro): selectively cytotoxic
- IC50 (HeLa-S1a): 400 nM
- IC50 (MM96): 56000 nM
- cytotoxicity (FIGS. 1 and 2) (MM96; MM96 melanoma in vitro): inactive
- cytotoxicity (FIGS. 1 and 2) (CI-80-13S; CI-80-13S ovarian in vitro): selectively cytotoxic
- IC50 (CI-80-13S): 400 nM
- cytotoxicity (FIGS. 1 and 2) (HeLa; HeLa cervical carcinoma in vitro): inactive
- IC50 (HeLa): 38000 nM

Structure (SMILES): O=[N+]([O-])[O-].O=[N+]([O-])[O-].[Ag+].[Ag+].c1ccc(P(CCP(c2ccccn2)c2ccccn2)c2ccccn2)nc1.c1ccc(P(CCP(c2ccccn2)c2ccccn2)c2ccccn2)nc1.c1ccc(P(CCP(c2ccccn2)c2ccccn2)c2ccccn2)nc1.c1ccc(P(CCP(c2ccccn2)c2ccccn2)c2ccccn2)nc1 [[Ag2 (d2pype)4](NO3)2]
- cytotoxicity (FIGS. 3 and 4) [2]: cytotoxic to all four cell lines
- selectivity against the cisplatin-resistant lines [2]: do not show the same selectivity

Structure (SMILES): Cc1cc(N)c2ccccc2[n+]1CCCCCCCCCC[n+]1c(C)cc(N)c2ccccc21 [delqualinium]
- enhancement of cisplatin cytotoxicity (cisplatin cytotoxicity [3]): enhance cisplatin cytotoxicity
- enhancement of cisplatin cytotoxicity (cisplatin cytotoxicity [4]): enhance cisplatin cytotoxicity

Structure (SMILES): Cl.c1cncc([P+]2(c3cccnc3)CC[P+](c3cccnc3)(c3cccnc3)[Cu-3]23[P+](c2cccnc2)(c2cccnc2)CC[P+]3(c2cccnc2)c2cccnc2)c1 [[Cu(d3pype)2]Cl]
- IC50 (CH1): 3000 nM
- IC50 (SKOV-3): > 50000 nM
- IC50 (41M-cisR): 30000 nM
- IC50 (41M): > 50000 nM

Structure (SMILES): [Au+].[Cl-].c1ccc(P(CCP(c2ccccc2)c2ccccn2)c2ccccn2)cc1.c1ccc(P(CCP(c2ccccc2)c2ccccn2)c2ccccn2)cc1 (stereo not drawn) [[Au(2-pyppe)2]Cl]
- IC50 (SKOV-3): 200 nM
- IC50 (41M-cisR): 100 nM
- IC50 (41M): 100 nM
- number of cell lines against which cytotoxic (human tumour cell lines): cytotoxic to all the cell lines evaluated
- degree of selectivity (human tumour cell lines; Tables 1 and 2): the least selectivity
- selectivity and cytotoxicity in ovarian cancer cell-lines (FIG. 5) ([1]; 96h incubation): cytotoxic to the 41M pair and the resistant SKOV-3

Structure (SMILES): [Cl-].[Cl-].c1ccc([P+]2(c3ccccn3)CC[P+](c3ccccn3)(c3ccccn3)[Au-3]23[P+](c2ccccn2)(c2ccccn2)CC[P+](c2ccccn2)(c2ccccn2)[Au-3]2([P+](c4ccccn4)(c4ccccn4)CC[P+]2(c2ccccn2)c2ccccn2)[P+](c2ccccn2)(c2ccccn2)CC[P+]3(c2ccccn2)c2ccccn2)nc1 [[Au2 (d2pype)4]Cl2]
- IC50 (SKOV-3): 1100 nM
- IC50 (41M-cisR): 600 nM
- IC50 (41M): 700 nM
- sensitivity of cisplatin-resistant cell lines versus non-resistant cells [5]: more sensitive
- selectivity and cytotoxicity in ovarian cancer cell-lines (FIG. 5) [1]: cytotoxic to the 41M pair and the resistant SKOV-3
- IC50 (HeLa-S1a): 60 nM
- IC50 (MM96): 90 nM
- IC50 (JAM): 100 nM and 390 nM
- IC50 (CI-80-13S): 60 ± 30 nM
- IC50 (HeLa): 240 ± 100 nM
- cytotoxicity (FIGS. 3 and 4) [2]: cytotoxic to all four cell lines
- selectivity against the cisplatin-resistant lines [2]: do not show the same selectivity

Structure (SMILES): Cl.c1cncc([P+]2(c3cccnc3)CC[P+](c3cccnc3)(c3cccnc3)[Au-3]23[P+](c2cccnc2)(c2cccnc2)CC[P+]3(c2cccnc2)c2cccnc2)c1 [[Au(d3pype)2]Cl]
- IC50 (CH1): 1500 nM
- IC50 (CH1-cisR): 10000 nM
- IC50 (SKOV-3): > 25000 nM
- IC50 (41M-cisR): 11000 nM
- IC50 (41M): > 25000 nM
